Where two headings read alike, the source gives them in different places.
Legend:
MRSA USF653 = assay: Kirby-Bauer agar disk diffusion; assay type: cell-based, Staphylococcus aureus; set-up: Kirby-Bauer Disc Diffusion Test Results: unit not given here; settings: for zone of inhibition at 20 µg/disc: Staphylococcus aureus, MRSA
How it was run: (§1)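 Zones of inhibition, in mm and averaged over three runs, are measured after 24 h around 6-mm disks dosed with 20 μg compound on agar lawns of β-lactamase-producing MRSA.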

MRSA USF655 = assay: Kirby-Bauer agar disk diffusion; assay type: cell-based, Staphylococcus aureus; set-up: Kirby-Bauer Disc Diffusion Test Results: unit not given here; settings: for zone of inhibition at 20 µg/disc: Staphylococcus aureus, MRSA
How it was run: as §1

MRSA USF656 = assay: Kirby-Bauer agar disk diffusion; assay type: cell-based, Staphylococcus aureus; set-up: Kirby-Bauer Disc Diffusion Test Results: unit not given here; settings: for zone of inhibition at 20 µg/disc: Staphylococcus aureus, MRSA
How it was run: as §1

MRSA USF657 = assay: Kirby-Bauer agar disk diffusion; assay type: cell-based, Staphylococcus aureus; set-up: Kirby-Bauer Disc Diffusion Test Results: unit not given here; settings: for zone of inhibition at 20 µg/disc: Staphylococcus aureus, MRSA
How it was run: as §1

MRSA USF659 = assay: Kirby-Bauer agar disk diffusion; assay type: cell-based, Staphylococcus aureus; set-up: Kirby-Bauer Disc Diffusion Test Results: unit not given here; settings: for zone of inhibition at 20 µg/disc: Staphylococcus aureus, MRSA
How it was run: as §1

Micrococcus luteus = assay: Kirby-Bauer agar disk diffusion; assay type: cell-based; settings: 6-mm disks, 20 μg test compound
How it was run: (§2)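 Agar disk diffusion used 6-mm air-dried disks carrying 20 μg of compound. Values are mean diameters (mm) of the growth-inhibition zone at 24 h, from triplicate experiments. S. epidermidis and S. simulans were clinical isolates.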

[1] = tested on: Staphylococcus aureus (ATCC 25923); assay: Kirby-Bauer agar disk diffusion; assay type: cell-based; settings: 6-mm disks, 20 μg test compound
How it was run: as §2

[2] = tested on: Staphylococcus epidermidis; assay: Kirby-Bauer agar disk diffusion; assay type: cell-based; settings: 6-mm disks, 20 μg test compound
How it was run: as §2

Staph aureus 525 = assay: Kirby-Bauer agar disk diffusion; assay type: cell-based, Staphylococcus aureus
MRSA strains = assay: MIC by agar dilution; assay type: cell-based, Staphylococcus aureus; settings: Staphylococcus aureus, MRSA, read-out: Minimum inhibitory concentration (MIC)
From the text: However, the N-alkylthio substituent is required, since reduction to the N—H analogue completely destroys the biological activity.

[3] = Table 1, 6-mm disks, 20 μg test compound, 24 h, triplicate, read-out: zone of growth inhibition, average diameter
[4] = Table 4, 20 μg disk loading, read-out: Zones of Inhibition
[5] = Table 6, 20 μg disk loading, read-out: The Zone of Inhibition
[6] = Table 3, 6-mm disks, 20 μg test compound, 24 hours
[7] = Table 5, beta-lactamase producing strain

With `CC1(C)S[C@@H]2[C@H](NC(=O)Cc3ccccc3)C(=O)N2[C@H]1C(=O)O` [PenG, penicillin G, reference compound] the zone of inhibition at 20 µg/disc (MRSA USF653; [3]) was 16 mm, the zone of inhibition at 20 µg/disc (MRSA USF653; [4]) was 15 mm and the zone of inhibition at 20 µg/disc (MRSA USF653; [5]) was 15 mm. The “zone of growth inhibition, average diameter” value (from here on “zone of growth inhibition”) (MRSA USF653; [6]) was 16 mm, the “Kirby-Bauer Disc Diffusion Test Results” value (MRSA USF653; [7]) was 15 and the zone of inhibition at 20 µg/disc (MRSA USF655; [3]) was 14 mm. The zone of inhibition at 20 µg/disc (MRSA USF655; [4]) was 14 mm, the zone of inhibition at 20 µg/disc (MRSA USF655; [5]) was 13 mm and the “zone of growth inhibition” value (MRSA USF655; [6]) was 14 mm. For the same molecule, the “Kirby-Bauer Disc Diffusion Test Results” value (MRSA USF655; Table 5) was 13, the zone of inhibition at 20 µg/disc (MRSA USF656; [3]) was 12 mm and the zone of inhibition at 20 µg/disc (MRSA USF656; [4]) was 12 mm. For the same molecule, the zone of inhibition at 20 µg/disc (MRSA USF656; [5]) was 10 mm, the “zone of growth inhibition” value (MRSA USF656; [6]) was 12 mm and the “Kirby-Bauer Disc Diffusion Test Results” value (MRSA USF656; [7]) was 10. It also gave a zone of inhibition at 20 µg/disc (MRSA USF657; [3]) of 12 mm, a zone of inhibition at 20 µg/disc (MRSA USF657; [4]) of 12 mm and a zone of inhibition at 20 µg/disc (MRSA USF657; [5]) of 12 mm. The “zone of growth inhibition” value (MRSA USF657; [6]) was 12 mm, the “Kirby-Bauer Disc Diffusion Test Results” value (MRSA USF657; [7]) was 12 and the zone of inhibition at 20 µg/disc (MRSA USF659; [3]) was 15 mm. The zone of inhibition at 20 µg/disc (MRSA USF659; [4]) was 15 mm, the zone of inhibition at 20 µg/disc (MRSA USF659; [5]) was 16 mm and the “zone of growth inhibition” value (MRSA USF659; [6]) was 15 mm. For the same molecule, the “Kirby-Bauer Disc Diffusion Test Results” value (MRSA USF659; [7]) was 16, the zone of inhibition at 20 µg/disc (Micrococcus luteus; Micrococcus luteus, Table 1, 24 h, triplicate, read-out: zone of growth inhibition, average diameter) was 40 mm and the “zone of growth inhibition” value (Micrococcus luteus; Table 3, 24 hours) was 40 mm. The zone of inhibition at 20 µg/disc ([1]; Staphylococcus aureus, ATCC25923, Table 1, 24 h, triplicate, read-out: zone of growth inhibition, average diameter) was 34 mm, the “zone of growth inhibition” value ([1]; Table 3, 24 hours) was 34 mm and the zone of inhibition at 20 µg/disc ([2]; Staphylococcus epidermidis, Table 1, 24 h, triplicate, read-out: zone of growth inhibition, average diameter) was 50 mm. For the same molecule, the “zone of growth inhibition” value ([2]; Table 3, 24 hours) was 50 mm, the zone of inhibition at 20 µg/disc (Staph aureus 525; Staphylococcus aureus, 525, Table 4, 20 μg disk loading, read-out: Zones of Inhibition) was 33 mm and the “Kirby-Bauer Disc Diffusion Test Results” value (Staph aureus 525; Table 5) was 33. The MIC (MRSA strains) was over 64 µg/mL.
